Assay results as given in patent US20090170897A1, “Method of Treating Neuropathic Pain” (Pfizer, Inc., priority 2004, published 2009).

Columns and labels:
CCI-induced pain in rats = details: literature; cited from earlier work
[1] = tested on: Chronic Constriction Injury (CCI) rat model of neuropathic pain; details: literature; cited from earlier work
[2] = tested on: Streptozocin (STZ)-induced diabetes neuropathy in the rat; details: literature; cited from earlier work
[3] = tested on: Chronic Constriction Injury (CCI) rat model of neuropathic pain; details: literature; cited from earlier work; remark: listed apart in the source
[4] = tested on: Streptozocin (STZ)-induced diabetes neuropathy in the rat; details: literature; cited from earlier work; remark: listed apart in the source
[5] = tested on: Streptozocin (STZ)-induced diabetes neuropathy in the rat; experiment: STZ-induced dynamic allodynia (cotton bud, PWL); format: in vivo; details: compound 25 mg/kg PO; gabapentin 100 mg/kg PO (positive control)
Procedure: (§1) Male Sprague Dawley rats weighing 150-400 g obtained from Charles River (Manston, Kent, UK.) were housed in groups of 3. All animals were kept under a 12 h light/dark cycle (lights on at 07 h 00 min) with food and water ad libitum. All experiments were carried out by an observer blind to the treatments and in accordance with the Home Office Animals (Scientific Procedures) Act 1986.
(§2) Diabetes was induced by a single intraperitoneal injection of streptozotocin (50 mg/kg) freshly dissolved in 0.9% sterile saline. Streptozotocin injection induces a reproducible mechanical allodynia within 3 weeks, lasting for at least 7 weeks (Chen and Pan, (Chen S R and Pan H L. Hypersensitivity of Spinothalamic Tract Neurons Associated With Diabetic Neuropathic Pain in Rats. J Neurophysiol 87: 2726-2733, 2002).
Dynamic allodynia was assessed by lightly stroking the plantar surface of the hind paw with a cotton bud. To avoid recording general motor activity, care was taken to perform this procedure in fully habituated rats that were not active. At least two measurements were taken at each time point, the mean of which represented the paw withdrawal latency (PWL). […] A pain withdrawal response was often accompanied with repeated flinching or licking of the paw. Dynamic allodynia was considered to be present if animals responded to the cotton stimulus within 8 sec of commencing stroking (Field et al, 1999).
(§3) All the experiments were conducted blind. Static allodynia was expressed as median [LQ; UQ] and analysed by Mann Whitney U test. Dynamic allodynia and thermal hyperalgesia were expressed as arithmetic mean±SEM and analysed by ANOVA.

[6] = tested on: Streptozocin (STZ)-induced diabetes neuropathy in the rat; experiment: STZ-induced static allodynia (von Frey hairs, PWT); format: in vivo; details: compound 25 mg/kg PO; gabapentin 100 mg/kg PO (positive control)
Procedure: as §1, §2
Animals were habituated to wire bottom test cages prior to the assessment of allodynia. Static allodynia was evaluated by application of von Frey hairs (Stoelting, Wood Dale, Ill., USA.) in ascending order of force (0.6, 1, 1.4, 2, 4, 6, 8, 10, 15 and 26 grams) to the plantar surface of hind paws. Each von Frey hair was applied to the paw for a maximum of 6 sec, or until a withdrawal response occurred. Once a withdrawal response to a von Frey hair was established, the paw was re-tested, starting with the filament below the one that produced a withdrawal, and subsequently with the remaining filaments in descending force sequence until no withdrawal occurred. The highest force of 26 g lifted the paw as well as eliciting a response, thus represented the cut off point. Each animal had both hind paws tested in this manner. The lowest amount of force required to elicit a response was recorded as paw withdrawal threshold (PWT) in grams. Static allodynia was defined as present if animals responded to a stimulus of, or less than, 4 g, which is innocuous in naive rats (Field M J, Bramwell S, Hughes J, Singh L. Detection of static and dynamic components of mechanical allodynia in rat models of neuropathic pain: are they signalled by distinct primary sensory neurones? Pain, 1999; 83:303-11).
as §3

[7] = tested on: Carrageenan-induced thermal hyperalgesia (CITH) in the rat; experiment: Carrageenan-induced thermal hyperalgesia (CITH), rat plantar test; format: in vivo; details: 3 mg/kg SC
Procedure: as §1
Thermal hyperalgesia was assessed using the rat plantar test (Ugo Basile, Comerio, Italy), according to a method modified by Hargreaves et al. (1988). Briefly, rats were habituated to the apparatus that consisted of three individual Perspex boxes on a glass table. A mobile radiant heat source was located under the table and focused onto the desired paw. Paw withdrawal latencies (PWLs) were recorded three times for both hind paws of each animal, the mean of which represented baseline for left and right hind paws. The apparatus was calibrated to give a PWL of approximately 10 s in naïve rats. To prevent tissue damage of the plantar zone, a 22.5 sec cut-off was observed. Lambda carrageenan was injected intraplantarly (100 μl, 20 mg/ml) the right hind paw and baseline recordings of PWT were taken 2 hr post administration.
as §3

CRTH2 receptor = biological target: T1, CRTH2 receptor (Homo sapiens, UniProt Q9Y5Y4); experiment: calcium mobilization in cells that express CRTH2 receptor; format: cell-based; details: absence of test compound, Indo-1 fluorescence; read-out: EC50 of increased [Ca2+]i
T1 construct: Flag peptide (behind a 'prolac' signal peptide) (N); expressed in transfected cells
T1 sequence (Q9Y5Y4 1-395): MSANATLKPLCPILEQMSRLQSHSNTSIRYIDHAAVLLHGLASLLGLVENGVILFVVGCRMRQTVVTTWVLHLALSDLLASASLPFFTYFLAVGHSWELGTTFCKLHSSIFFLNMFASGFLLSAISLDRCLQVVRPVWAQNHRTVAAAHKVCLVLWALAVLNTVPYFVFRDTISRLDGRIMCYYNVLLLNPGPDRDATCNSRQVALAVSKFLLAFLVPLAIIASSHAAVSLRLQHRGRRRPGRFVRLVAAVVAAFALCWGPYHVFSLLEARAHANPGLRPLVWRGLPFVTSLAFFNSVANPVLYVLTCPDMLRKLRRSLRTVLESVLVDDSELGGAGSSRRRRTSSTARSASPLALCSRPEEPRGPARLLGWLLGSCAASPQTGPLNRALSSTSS
Procedure: The ratio of fluorescence produced by the calcium-bound dye to that produce by the unbound dye is used to estimate the intracellular calcium concentration. In an example method cells that express CRTH2 receptor are collected, and resuspended in fresh media at ˜2×10^5/ml the day before performing the calcium flux assay. Cells are incubated at 37° C. for not longer than 20-30 minutes, and then spun down and resuspended in 50 ml fresh PTI buffer (Hank's Buffer, pH 7.2-7.4; 10 mM Hepes; 1.6 mM CaCl2) containing Indo-1 AM, pre-warmed to 37° C., at a concentration of 10 million per ml. Cells are excited, and fluorescence is measured using a fluorimeter (Photon Technology Corporation, International). After the readout has stabilized, the time axis is reset, and PGD2 is added at a specific time point (e.g., 20 seconds). After response, the following reagents are added to the cuvette, to release and chelate total calcium, in the following order: 20 μl of 18% Triton X-100, 20 μl of 3M Tris, pH 8.5, and 20 μl of 0.5M EGTA, pH 8.5. The experiment is repeated in the presence and the absence of a test compound. […] Therefore, in the presence of an antagonist test compound, the EC50 would be expected to […].

SMILES	reversal of CCI-induced pain in rats (Schäfers 2004) (CCI-induced pain in rats)	static allodynia in CCI rat model (Field et al 1999) [1]	dynamic allodynia in STZ rat model (Field et al 1999) [2]	dynamic allodynia in CCI rat model (Field et al 1999) [3]	static allodynia in STZ rat model (Field et al 1999) [4]	also measured
Cc1ccc(-c2cc(C(F)(F)F)nn2-c2ccc(S(N)(=O)=O)cc2)cc1 [Celebrex]	no significant effect	–	–	–	–	–
NCC1(CC(=O)O)CCCCC1 [Gabapentin]	–	reverse both static and dynamic allodynia	reverse both static and dynamic allodynia	reverse both static and dynamic allodynia	reverse both static and dynamic allodynia	effect on maintenance of STZ-induced dynamic allodynia [5]: complete reversal; effect on maintenance of STZ-induced static allodynia [6]: complete reversal
CC(C)Cc1ccc(C(C)C(=O)O)cc1 (centres unmarked) [Ibuprofen]	no significant effect	–	–	–	–	–
CN1CC[C@]23c4c5ccc(O)c4O[C@H]2[C@@H](O)C=C[C@H]3[C@H]1C5 [Morphine, reference compound]	–	reverses static	–	not dynamic allodynia	–	analgesic effect of positive control [7]: produced the expected analgesic effect; change of PWLs in both hindpaws ([7]; 30 min post dose): increased the PWLs in both hindpaws over the baseline value of naïve rats
CCCCC[C@H](O)/C=C/[C@H]1C(=O)C[C@H](O)[C@@H]1C/C=C\CCCC(=O)O [PGD2, Prostaglandin D2]	–	–	–	–	–	EC50 (CRTH2 receptor): 15 nM
CC(C)C[C@H](CN)CC(=O)O [Pregabalin]	–	reverse both static and dynamic allodynia	reverse both static and dynamic allodynia	reverse both static and dynamic allodynia	reverse both static and dynamic allodynia	–
